Our source for the IC50 values is US11878970B2, “Allosteric chromenone inhibitors of phosphoinositide 3-kinase (PI3K) for the treatment of disease” (Petra Pharma Corporation, priority 2021, dated 2024).

The term IC50 denotes the concentration that gives 50% inhibition.

Assay [1] addresses T1, PI3K-α (PIK3CA) wild-type (WT), p110α/p85α complex (Homo sapiens, UniProt P42336).
T1 construct: Recombinant, catalytically active human full length PIK3KA Wild-type and H1047R mutant; 6×His (N); purchased EMD Millipore Sigma 14-602M
As to the kind of experiment: PI3K-alpha kinase (PIK3CA) biochemical activity, ADP-Glo, wild-type. As to conditions: Soy PI lipid substrate. A digest of the protocol: (§1)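 ADP formation measured by ADP-Glo luminescence after reaction at 27 °C to about 10% ATP turnover, using 20 uM ATP, 50 uM PIP2diC8 or soy PI lipid, HEPES pH 7.4 with MgCl2. Enzyme (1-5 nM WT or H1047R p110α/p85α) and compound preincubated 1 h first; 10-point 1:3 curves fitted four-parameter for IC50.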
In general terms: ADP-Glo turns the ADP formed in a reaction into a luminescent signal.

For assay [2], the target named is T2, PI3K-α (PIK3CA) H1047R mutant, p110α/p85α complex (Homo sapiens, UniProt P42336, H1047R).
T2 construct: Recombinant, catalytically active human full length PIK3KA Wild-type and H1047R mutant; 6×His (N); purchased EMD Millipore Sigma 14-792M
As to the kind of experiment: PI3K-alpha kinase (PIK3CA) biochemical activity, ADP-Glo, H1047R mutant. The settings on record: Soy PI lipid substrate. The method, boiled down: as §1

In assay [3] the target is PI3K-α (PIK3CA) in MDA-MB-453 cells (Homo sapiens, UniProt P42336). As to the kind of experiment: PI3K-alpha kinase (PIK3CA) in vitro cell based assay, MDA-MB-453 cells, SureFire Ultra AlphaLisa. The settings on record: read-out: PI3K-α (PIK3CA) in vitro cell based assay IC50. A digest of the protocol: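 Cells treated 3 h in serum-free MEM with 1 μg/mL insulin, 10-point 1:3 series in 0.3% DMSO, then lysed for SureFire Ultra AlphaLisa read-out. Inhibition normalized to DMSO (max) and 1 μM GDC-0032 (min); duplicate averages fitted by 4-parameter logistic for relative IC50.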
Sequence of PI3K-α (PIK3CA) in MDA-MB-453 cells (P27986 2-724): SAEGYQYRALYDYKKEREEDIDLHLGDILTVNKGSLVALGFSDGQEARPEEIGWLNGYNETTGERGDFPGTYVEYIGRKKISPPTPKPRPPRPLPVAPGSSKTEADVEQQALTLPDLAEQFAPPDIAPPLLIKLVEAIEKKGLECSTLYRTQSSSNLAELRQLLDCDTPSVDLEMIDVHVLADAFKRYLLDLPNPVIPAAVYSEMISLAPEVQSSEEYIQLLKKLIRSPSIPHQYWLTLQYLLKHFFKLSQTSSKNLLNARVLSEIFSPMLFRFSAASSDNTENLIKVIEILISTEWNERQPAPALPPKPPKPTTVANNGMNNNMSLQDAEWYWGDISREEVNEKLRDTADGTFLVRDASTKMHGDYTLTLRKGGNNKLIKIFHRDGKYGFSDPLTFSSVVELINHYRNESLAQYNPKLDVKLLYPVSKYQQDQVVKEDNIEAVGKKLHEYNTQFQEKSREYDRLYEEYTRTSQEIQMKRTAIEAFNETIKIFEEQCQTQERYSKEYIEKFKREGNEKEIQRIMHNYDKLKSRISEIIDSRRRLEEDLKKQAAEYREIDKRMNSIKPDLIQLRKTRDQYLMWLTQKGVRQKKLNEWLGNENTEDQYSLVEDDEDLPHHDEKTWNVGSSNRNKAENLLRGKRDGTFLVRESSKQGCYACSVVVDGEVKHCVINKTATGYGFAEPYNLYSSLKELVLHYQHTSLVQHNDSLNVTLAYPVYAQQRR
Sequence of PI3K-α (PIK3CA) in MDA-MB-453 cells (P42336 whole entry): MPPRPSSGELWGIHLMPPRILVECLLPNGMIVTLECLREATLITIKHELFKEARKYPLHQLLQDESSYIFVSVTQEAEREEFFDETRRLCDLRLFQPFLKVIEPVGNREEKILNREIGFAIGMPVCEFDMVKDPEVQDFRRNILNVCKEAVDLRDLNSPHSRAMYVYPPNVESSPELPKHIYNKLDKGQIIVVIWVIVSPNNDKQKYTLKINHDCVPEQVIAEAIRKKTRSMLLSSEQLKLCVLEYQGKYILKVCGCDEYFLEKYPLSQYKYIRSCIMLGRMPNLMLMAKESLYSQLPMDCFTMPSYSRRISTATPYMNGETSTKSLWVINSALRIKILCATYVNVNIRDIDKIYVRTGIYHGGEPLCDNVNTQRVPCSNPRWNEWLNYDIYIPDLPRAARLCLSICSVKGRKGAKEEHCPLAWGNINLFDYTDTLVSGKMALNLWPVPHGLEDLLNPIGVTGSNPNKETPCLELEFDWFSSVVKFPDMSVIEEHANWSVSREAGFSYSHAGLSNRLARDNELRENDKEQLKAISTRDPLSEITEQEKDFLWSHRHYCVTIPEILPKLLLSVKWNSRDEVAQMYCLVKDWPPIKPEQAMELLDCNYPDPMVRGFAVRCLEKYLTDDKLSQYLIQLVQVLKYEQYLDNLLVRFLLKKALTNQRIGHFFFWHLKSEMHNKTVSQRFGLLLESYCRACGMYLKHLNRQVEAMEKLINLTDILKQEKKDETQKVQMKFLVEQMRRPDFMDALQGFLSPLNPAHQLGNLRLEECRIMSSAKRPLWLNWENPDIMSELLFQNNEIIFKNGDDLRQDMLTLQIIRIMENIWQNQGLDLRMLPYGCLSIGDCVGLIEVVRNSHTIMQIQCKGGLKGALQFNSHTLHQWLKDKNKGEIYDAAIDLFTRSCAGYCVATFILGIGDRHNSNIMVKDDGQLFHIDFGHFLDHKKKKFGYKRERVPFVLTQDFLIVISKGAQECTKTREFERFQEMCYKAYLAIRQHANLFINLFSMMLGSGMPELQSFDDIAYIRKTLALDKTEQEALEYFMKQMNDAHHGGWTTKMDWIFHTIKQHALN

T2 sequence (P42336 whole entry H1047R): as the sequence (P42336 whole entry) above, with H1047R counted along it
T2 sequence (P27986 whole entry partner): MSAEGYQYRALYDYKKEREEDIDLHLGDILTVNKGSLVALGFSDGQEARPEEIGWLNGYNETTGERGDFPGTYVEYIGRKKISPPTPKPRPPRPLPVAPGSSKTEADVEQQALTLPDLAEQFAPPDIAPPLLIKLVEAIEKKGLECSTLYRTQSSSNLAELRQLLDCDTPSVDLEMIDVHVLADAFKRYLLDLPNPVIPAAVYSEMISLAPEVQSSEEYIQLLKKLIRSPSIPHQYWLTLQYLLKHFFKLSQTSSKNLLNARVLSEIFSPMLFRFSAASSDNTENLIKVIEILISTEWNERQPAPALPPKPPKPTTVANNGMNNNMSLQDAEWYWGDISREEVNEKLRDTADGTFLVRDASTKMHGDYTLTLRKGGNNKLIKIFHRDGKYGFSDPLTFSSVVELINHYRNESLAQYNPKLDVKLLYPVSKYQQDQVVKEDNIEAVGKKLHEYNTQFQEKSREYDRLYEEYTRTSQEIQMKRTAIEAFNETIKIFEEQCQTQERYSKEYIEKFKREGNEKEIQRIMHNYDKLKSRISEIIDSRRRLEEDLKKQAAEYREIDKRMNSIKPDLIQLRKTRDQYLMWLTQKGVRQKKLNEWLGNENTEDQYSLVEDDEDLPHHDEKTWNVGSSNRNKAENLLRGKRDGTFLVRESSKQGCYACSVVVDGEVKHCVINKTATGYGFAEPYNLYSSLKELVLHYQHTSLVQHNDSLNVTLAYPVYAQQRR

On to `Cc1cc(C(C)Nc2ccccc2C(=O)O)c2oc(-c3ccc4ccn(C)c4c3)cc(=O)c2c1` (single isomer, unassigned) [Example 158, 2-[1-[6-Methyl-2-(1-methylindol-6-yl)-4-oxo-chromen-8-yl]ethylamino]benzoic acid], for which the IC50 was 1000 to 5000 nM in assay [1], below 500 nM in assay [2] and below 50 nM in assay [3].
Turning to `Cc1cc(C(C)Nc2ccccc2C(=O)O)c2oc(-c3ccc4ncccc4n3)cc(=O)c2c1` (single isomer, unassigned) [Example 252, 2-[1-[6-Methyl-2-(1,5-naphthyridin-2-yl)-4-oxo-chromen-8-yl]ethylamino]benzoic acid], the IC50 in assay [1] was 1000 to 5000 nM; in assay [2] it was 500 to 1000 nM; in assay [3], below 50 nM.
Turning to `Cc1cc([C@@H](C)Nc2ccccc2C(=O)O)c2oc(-c3ccc4c(cnn4Cc4ccccc4)c3)c(C)c(=O)c2c1` [Example 211, 2-[[(1R)-1-[2-(1-Benzylindazol-5-yl)-3,6-dimethyl-4-oxo-chromen-8-yl]ethyl]amino]benzoic acid], the IC50 in assay [1] is 500 to 1000 nM; in assay [2], below 500 nM; in assay [3], 50 to 100 nM.
With `Cc1cc(C(C)Nc2ccccc2C(=O)O)c2oc(-c3ccc4c(cnn4C)c3)cc(=O)c2c1` (single isomer, unassigned) [Example 26, 2-[1-[6-Methyl-2-(1-methylindazol-5-yl)-4-oxo-chromen-8-yl]ethylamino]benzoic acid], the IC50 was below 500 nM in assay [1], below 500 nM in assay [2] and below 50 nM in assay [3].
For `Cc1cc(C(C)Nc2ccccc2C(=O)O)c2oc(-c3cc4cccnc4cn3)cc(=O)c2c1` (single isomer, unassigned) [Example 187, 2-[1-[6-Methyl-2-(1,7-naphthyridin-6-yl)-4-oxo-chromen-8-yl]ethylamino]benzoic acid], the IC50 was 1000 to 5000 nM in assay [1], below 500 nM in assay [2] and below 50 nM in assay [3].
For `Cc1cc(C(C)Nc2ccccc2C(=O)O)c2oc(-c3ccc4nn(C)cc4c3)cc(=O)c2c1` (single isomer, unassigned) [Example 75, 2-[1-[6-Methyl-2-(2-methylindazol-5-yl)-4-oxo-chromen-8-yl]ethylamino]benzoic acid], in that order: 500 to 1000 nM, below 500 nM and below 50 nM.
Take `Cc1cc([C@@H](C)Nc2cccnc2C(=O)O)c2oc(-c3nn(C)c4ccccc34)cc(=O)c2c1` [Example 232, 3-[[(1R)-1-[6-Methyl-2-(1-methylindazol-3-yl)-4-oxo-chromen-8-yl]ethyl]amino]pyridine-2-carboxylic acid]: the IC50 in assay [1] is above 10000 nM; in assay [2], 500 to 1000 nM; in assay [3], 100 to 500 nM.
Take `Cc1cc([C@@H](C)Nc2ccccc2C(=O)O)c2oc(-c3ccc4nn(Cc5ccccc5)cc4c3)c(C)c(=O)c2c1` [Example 210, 2-[[(1R)-1-[2-(2-Benzylindazol-5-yl)-3,6-dimethyl-4-oxo-chromen-8-yl]ethyl]amino]benzoic acid]: the IC50 was 500 to 1000 nM in assay [1], below 500 nM in assay [2] and below 50 nM in assay [3].
For `Cc1cc(C(C)Nc2ccccc2C(=O)O)c2oc(-n3ncc4c(C)cccc43)cc(=O)c2c1` (single isomer, unassigned) [Example 88, 2-[1-[6-Methyl-2-(4-methylindazol-1-yl)-4-oxo-chromen-8-yl]ethylamino]benzoic acid], in that order: 500 to 1000 nM, below 500 nM and 100 to 500 nM.
Turning to `Cc1cc([C@@H](C)Nc2ccc(F)cc2C(=O)O)c2oc(-c3ccc4nc(C)sc4n3)c(C)c(=O)c2c1` [Example 254, 2-[[(1R)-1-[3,6-Dimethyl-2-(2-methylthiazolo[5,4-b]pyridin-5-yl)-4-oxo-chromen-8-yl]ethyl]amino]-5-fluoro-benzoic acid], the IC50 in assay [1] is 500 to 1000 nM; in assay [2], below 500 nM; in assay [3], below 50 nM.
